Laboratory results published in patent publication US20100298305A1, “TIZANIDINE FOR THE TREATMENT OF POST-TRAUMATIC STRESS DISORDER AND NIGHTMARES” (The United States Government, as represented by the …, priority 2008, published 2010).
Where two headings read alike, the source gives them in different places.

How the values were obtained:
PTSD [1] = experiment: Example 1 case summaries 1-6: tizanidine as adjunctive treatment for PTSD, anxiety, depression, psychosis or impaired cognition; format: in vivo, human; details: for signs or symptoms: Case 3, more than two years, sertraline 250 mg daily, divalproex sodium 2500 mg daily, quetiapine 100 mg twice daily and 400 mg at bedtime, amitriptyline 25 mg at bedtime, tramadol 50 mg as needed
Protocol: Treatment was begun with sertraline 100 mg per day for anxiety and nortriptyline 25 mg at bedtime for headaches. […] Treatment with tizanidine was started and the dose was increased to 8 mg at bedtime.
Tizanidine was started and titrated up to 4 mg at bedtime along with aripiprazole (15 mg at bedtime) and clonazepam (0.5 mg daily).
These medications included sertraline (250 mg daily), divalproex sodium (2500 mg daily), quetiapine (100 mg twice daily and 400 mg at bedtime), amitriptyline (25 mg at bedtime), and tramadol (50 mg as needed for severe headache). […] A trial of tizanidine was started and the dose was titrated up to 8 mg at bedtime.
Pharmacologic Treatment and Response: While on the psychiatry unit, they were treated with sertraline for PTSD and nortriptyline for headaches and depression. […] They were started on tizanidine 4 mg at bedtime.
After approximately one year, subject agreed to a trial of tizanidine as an addition to sertraline. […] They agreed to increase the dose to 4 mg at bedtime and follow-up in four weeks. […] An atypical antipsychotic medication, aripiprazole, was added to their medications.
Treatment with tizanidine 4 mg at bedtime was added to the existing sertraline.

PTSD [2] = experiment: Example 2 case summaries 7-9: switching from once to twice-daily dosing of tizanidine; details: for improvement on medications: approximately one year, doses close to the maximum recommended dose
Protocol: They were continued on aripiprazole, quetiapine, sertraline, and trazodone. Treatment with tizanidine was started for the nightmares and poor sleep.
They were switched from tizanidine 8 mg at bedtime to tizanidine 6 mg in the morning and 8 mg at bedtime. […] They continued on the sertraline, divalproex, and trazodone for initial insomnia. The tizanidine was switched to 4 mg in the morning and 4 mg at bedtime.
Subject was started on tizanidine up to 8 mg at bedtime for nightmares. They also were issued a device to assist with memory problems. A rating scale for common cognitive problems was administered by speech pathology prior to issuing them a personal digital assistant as a memory assist device.
They continued to take sertraline and tizanidine. At a psychology evaluation session, subject completed two self-report instruments of PTSD and depressive symptoms to establish a baseline indication of symptom severity. […] Subject was then switched from tizanidine 8 mg at bedtime to 4 mg twice daily.
After approximately one year of being followed in the psychiatry clinic, they became more willing to try medication and agreed to a trial of tizanidine.

PTSD [3] = details: Case 10; for ADHD symptoms: earlier medication trials during military service
Source text: Given the prior history of ADHD, methylphenidate was cautiously added to the venlafaxine. […] They were referred to a specialty inpatient program for PTSD. During the inpatient program, the antidepressant was switched from venlafaxine to duloxetine.

[4] = Case 1, sertraline 100 mg per day with nortriptyline 25 mg at bedtime, after four weeks
[5] = Case 4, sertraline with nortriptyline, five days after hospital discharge
[6] = Case 8, sertraline 150 mg per day, two months later

Question: How did the signs or symptoms (PTSD [1]) turn out when `CN(C)CCC=C1c2ccccc2CCc2ccccc21` [amitriptyline] was run?
Answer: None of these medications significantly reduced their signs or symptoms

Question: For `O=C1CCc2ccc(OCCCCN3CCN(c4cccc(Cl)c4Cl)CC3)cc2N1` [aripiprazole], which improvement on medications (PTSD [2]; Case 7) is on record?
Answer: only modest improvement

Question: How did the ADHD symptoms (PTSD [3]) turn out when `CC(NC(C)(C)C)C(=O)c1cccc(Cl)c1` (stereo not shown) [bupropion] was run?
Answer: neither of which were effective

Question: Which results are given for `CCCC(CCC)C(=O)O` [divalproex sodium]?
Answer: signs or symptoms (PTSD [1]): None of these medications significantly reduced their signs or symptoms; improvement on medications (PTSD [2]; Case 7): only modest improvement

Question: How did the “helpfulness as judged by subject” value (PTSD [3]; antidepressant switched from venlafaxine to duloxetine) turn out when `CNCC[C@H](Oc1cccc2ccccc12)c1cccs1` [duloxetine] was run?
Answer: did not believe the duloxetine was helpful

Question: With `OCCOCCN1CCN(C(c2ccccc2)c2ccc(Cl)cc2)CC1` (stereo not shown) [hydroxyzine] as the compound, how does the improvement on medications (PTSD [2]; Case 7) read?
Answer: only modest improvement

Question: Which results are given for `COC(=O)C(c1ccccc1)C1CCCCN1` (stereo not shown) [methylphenidate]?
Answer: ADHD symptoms (PTSD [3]): neither of which were effective; mood and anxiety symptoms (PTSD [3]; methylphenidate added to venlafaxine): marked improvement; mood and anxiety symptoms (PTSD [3]; methylphenidate as monotherapy, several weeks): improved mood and anxiety symptoms; mood, anxiety, and cognitive symptoms (PTSD [3]; short-acting methylphenidate 10 mg three times daily): additional improvements

Question: Which nightmares (PTSD [1]; Case 2, prazosin 5 mg at bedtime added, sertraline increased to 200 mg daily) does the source give for `COc1cc2nc(N3CCN(C(=O)c4ccco4)CC3)nc(N)c2cc1OC` [prazosin] here?
Answer: reduced but did not eliminate nightmares

Question: With `OCCOCCN1CCN(C2=Nc3ccccc3Sc3ccccc32)CC1` [quetiapine] as the compound, how does the hallucinations (PTSD [1]; Case 2, trial of quetiapine) read?
Answer: did not affect the hallucinations

Question: What about the signs or symptoms (PTSD [1]) of the same compound?
Answer: None of these medications significantly reduced their signs or symptoms

Question: And the improvement on medications (PTSD [2]; Case 7)?
Answer: only modest improvement

Question: For `CN[C@H]1CC[C@@H](c2ccc(Cl)c(Cl)c2)c2ccccc21` [sertraline], which “anxiety, depression, and psychosis” value (PTSD [1]; [4]) is on record?
Answer: only a modest decrease

Question: What about the “intensity and frequency of nightmares” value (PTSD [1]; [4]) of the same compound?
Answer: unchanged

Question: What about the “anxiety, nightmares, and psychosis” value (PTSD [1]; Case 2, sertraline 200 mg daily, bupropion 150 mg twice daily and prazosin 5 mg at bedtime, one year) of the same compound?
Answer: only a mild impact

Question: What about the signs or symptoms (PTSD [1]) of the same compound?
Answer: None of these medications significantly reduced their signs or symptoms

Question: What about the hallucinations and paranoia (PTSD [1]; [5]) of the same compound?
Answer: improvements regarding hallucinations and paranoia

Question: And the “sleep problems and nightmares” value (PTSD [1]; [5])?
Answer: persistent sleep problems and nightmares

Question: And the “response to medication changes” value (PTSD [1]; Case 5, sertraline increased to 200 mg per day with sodium divalproex and aripiprazole added, twelve months)?
Answer: only a modest response

Question: What about the treatment results (PTSD [1]; Case 5, sertraline since release from military duty) of the same compound?
Answer: poor results

Question: What about the “PTSD signs and symptoms” value (PTSD [1]; Case 6, sertraline up to 200 mg per day, approximately one year) of the same compound?
Answer: only modest improvement

Question: What about the improvement on medications (PTSD [2]; Case 7) of the same compound?
Answer: only modest improvement

Question: What about the anxiety symptoms (PTSD [2]; [6]) of the same compound?
Answer: responded well

Question: And the irritability (PTSD [2]; [6])?
Answer: not improved

Question: For `CC1(C)O[C@@H]2[C@@H](CO[C@@]3(COS(N)(=O)=O)OC(C)(C)O[C@@H]23)O1` [topiramate], which “frequency of combined visual-olfactory hallucinations” value (PTSD [2]; Case 7, recent addition of topiramate) is on record?
Answer: did not reduce the frequency

Question: How did the signs or symptoms (PTSD [1]) turn out when `COc1cccc(C2(O)CCCCC2CN(C)C)c1` (stereo not shown) [tramadol] was run?
Answer: None of these medications significantly reduced their signs or symptoms

Question: `O=c1n(CCCN2CCN(c3cccc(Cl)c3)CC2)nc2ccccn12` [trazodone] was tested. Which improvement on medications (PTSD [2]; Case 7) did it give?
Answer: only modest improvement

Question: For `COc1ccc(C(CN(C)C)C2(O)CCCCC2)cc1` (stereo not shown) [venlafaxine], which condition (PTSD [1]; Case 2, sertraline switched to venlafaxine up to 300 mg daily, six months) is on record?
Answer: did not significantly change their condition

Question: And the adverse effect (PTSD [2]; Case 8, Venlafaxine up to 150 mg daily)?
Answer: developed akathisia

Question: What about the “mood and anxiety symptoms” value (PTSD [3]; venlafaxine sustained-release 225 mg per day with zolpidem 10 mg at bedtime) of the same compound?
Answer: only modestly improved

Question: `Cc1ccc(-c2nc3ccc(C)cn3c2CC(=O)N(C)C)cc1` [zolpidem] was tested. Which nightmares (PTSD [2]; Case 8, initial treatment with zolpidem) did it give?
Answer: did not improve the nightmares
